The values that follow come from US20260001914A1, “MACROCYCLIC PEPTIDES TARGETING KRAS” (Merck Sharp & Dohme LLC, priority 2022, published 2026).

*1 amine or outer side, *2 acyl side, *3 side chain or, on linkers, in order; H or OH if unused. Where a SMILES comes first, the peptide text is derived from it. Bridges are numbered along the chain shown (N, C = ends). [ ]: non-standard residue; d: D form. X34 = O=C(C[C@@H](Cc1ccccc1)C(=O)[*:2])C12CC(CN[*:1])(C1)C2; NMeNva(5-imidazol-1-yl) = CN[C@@H](CCCn1ccnc1)C(=O)O; X18 = CNC(=N)N(C)c1ccc(C[C@H](N[*:1])C(=O)[*:2])cc1; X19 = C[C@H](c1ccccc1)[C@@H](C(=O)[*:2])N(C)[*:1]; Ala(pyrimidin-5-yl) = N[C@@H](Cc1cncnc1)C(=O)O; NMe3Pal(6-Me) = CN[C@@H](Cc1ccc(C)nc1)C(=O)O; NMePhe(4-Me) = CN[C@@H](Cc1ccc(C)cc1)C(=O)O; X25 = O=C([C@H](Cc1ccc(F)nc1)N[*:1])[*:2]; X10 = CS(=O)(=O)CCCCN(CC(=O)[*:2])[*:1]; X11 = CC(C)(F)CC[C@H](N[*:1])C(=O)[*:2]; Nle(5,5-F2) = CC(F)(F)CC[C@H](N)C(=O)O; Phe(2-F) = N[C@@H](Cc1ccccc1F)C(=O)O; NMe3Pal = CN[C@@H](Cc1cccnc1)C(=O)O; X1 = O=C(C12CC(CN[*:1])(C1)C2)[*:2]; NMeOrn(Me) = CNCCC[C@H](NC)C(=O)O; Ala(cPr) = N[C@@H](CC1CC1)C(=O)O; NMeF = CN[C@@H](Cc1ccccc1)C(=O)O; PhLac = O=C(O)[C@@H](O)Cc1ccccc1; 3Pal = N[C@@H](Cc1cccnc1)C(=O)O; Ahp(2) = CCCCC[C@H](N)C(=O)O; Cba = N[C@@H](CC1CCC1)C(=O)O; αMeC = C[C@](N)(CS)C(=O)O; NMeA = CN[C@@H](C)C(=O)O; Nle = CCCC[C@H](N)C(=O)O

Sequence of phosphorylation levels of ERK1/2 in AsPC-1 (homozygous KRAS-G12D) cells (P01116 1-186 G12D): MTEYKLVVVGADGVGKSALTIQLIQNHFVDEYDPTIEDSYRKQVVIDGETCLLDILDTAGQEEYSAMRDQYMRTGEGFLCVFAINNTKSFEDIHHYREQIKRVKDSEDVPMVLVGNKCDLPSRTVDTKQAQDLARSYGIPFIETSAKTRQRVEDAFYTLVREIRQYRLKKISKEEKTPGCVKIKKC

The test concerns the target phosphorylation levels of ERK1/2 in AsPC-1 (homozygous KRAS-G12D) cells (Homo sapiens, UniProt P01116, G12D). The experiment in a line: Cellular phospho-ERK assay in AsPC-1 cells (Alpha Screen), assay medium without fetal bovine serum.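 Note: signal taken as phospho-ERK over total ERK per well, both detected in one multiplex bead assay, EC50 from four-parameter logistic fit of dose-response curves.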 To be noted: phospho-ERK AlphaScreen, 18 h. Format: cell-based. (In general: Bead proximity is the source of the signal in Alpha formats.)
As to `CCCCC[C@@H]1NC(=O)[C@H](Cc2ccc(OC)cc2)NC(=O)[C@H](CC2CCC2)NC(=O)[C@H](Cc2ccc(N(C)C(=N)NC)cc2)NC(=O)[C@H](CCCNC)N(C)C(=O)[C@H](Cc2ccccc2)NC(=O)CSC[C@@](C)(C(N)=O)NC(=O)[C@H](Cc2ccc(C)nc2)N(C)C1=O` [compound 395, cyclo(F-NMeOmMe-Phe4GnMeMe-cBuA-TyrOMe-Ahp-NMe3Pal4Me-aMeCl-ClAc)] ({CH2CO}-F[NMeOrn(Me)][X18][Cba]Y(Me)[Ahp(2)][NMe3Pal(6-Me)][αMeC]-NH2; thioether N-8), the EC50 (as a rule, the concentration needed to bring the measured effect to its halfway point) is above 50.8 µM.

Take `CCCC[C@@H]1NC(=O)[C@H](Cc2cccnc2)NC(=O)[C@H](C)N(C)C(=O)[C@H](Cc2ccc(F)nc2)NC(=O)C23CC(CNC(=O)[C@H](Cc4cccnc4)N(C)C(=O)[C@H](CCCC)NC(=O)[C@H](Cc4ccccc4F)NC1=O)(C2)C3` [compound 165, cyclo(4F3Pal-NMeA-3Pal-Nle-Phe2F-Nle-NMe3Pal-amBCP)] (cyclo([3Pal][Nle][Phe(2-F)][Nle][NMe3Pal][X1][X25][NMeA])): the EC50 is above 50.8 µM.

With `CCCC[C@@H]1NC(=O)[C@H](Cc2cccnc2)NC(=O)CN(CCCCS(C)(=O)=O)C(=O)[C@H](Cc2ccccc2)OC(=O)C23CC(CNC(=O)[C@H](Cc4cccnc4)N(C)C(=O)[C@H](CCCC)NC(=O)[C@H](Cc4ccccc4F)NC1=O)(C2)C3` [compound 407, cyclo(FLac-NOHmsbGly-3Pal-Nle-Phe2F-Nle-NMe3Pal-amBCP)] (cyclo([3Pal][Nle][Phe(2-F)][Nle][NMe3Pal][X1][PhLac][X10])), the EC50 is above 50.8 µM.

Molecule `C[C@H](c1ccccc1)[C@H]1C(=O)NCC23CC(C2)(C3)C(=O)O[C@@H](Cc2ccccc2)C(=O)N(C)[C@@H](C)C(=O)N[C@@H](Cc2cncnc2)C(=O)N[C@@H](CC2CC2)C(=O)N[C@@H](Cc2ccccc2F)C(=O)N[C@@H](CCC(C)(C)F)C(=O)N1C` [compound 341, cyclo(FLac-NMeA-PyrimAla-cPrA-Phe2F-hL3F-NMeRbMeF-amBCP)] (cyclo([Ala(cPr)][Phe(2-F)][X11][X19][X1][PhLac][NMeA][Ala(pyrimidin-5-yl)])) gave an EC50 above 50.8 µM.

`CCCC[C@@H]1NC(=O)[C@H](Cc2cncnc2)NC(=O)[C@H](CCCn2ccnc2)N(C)C(=O)[C@H](Cc2ccccc2)OC(=O)C23CC(CNC(=O)[C@H](Cc4cccnc4)N(C)C(=O)[C@H](CCCC)NC(=O)[C@H](Cc4ccccc4F)NC1=O)(C2)C3` [compound 240, cyclo(FLac-NMeNvalmid-PyrimAla-Nle-Phe2F-Nle-NMe3Pal-amBCP)] (cyclo([NMe3Pal][X1][PhLac][NMeNva(5-imidazol-1-yl)][Ala(pyrimidin-5-yl)][Nle][Phe(2-F)][Nle])) had an EC50 above 50.8 µM.

The molecule `CCCC[C@@H]1NC(=O)[C@H](Cc2cncnc2)NC(=O)[C@H](C)N(C)C(=O)[C@H](Cc2ccccc2)OC(=O)C23CC(CNC(=O)[C@H](Cc4ccc(C)cc4)N(C)C(=O)[C@H](CCCC)NC(=O)[C@H](Cc4ccccc4F)NC1=O)(C2)C3` [compound 171, cyclo(FLac-NMeA-PyrimAla-Nle-Phe2F-Nle-NMePhe4Me-amBCP)] (cyclo([NMeA][Ala(pyrimidin-5-yl)][Nle][Phe(2-F)][Nle][NMePhe(4-Me)][X1][PhLac])) yielded an EC50 of 0.223 µM.

`C[C@H]1C(=O)N[C@@H](Cc2cncnc2)C(=O)N[C@@H](CC2CC2)C(=O)N[C@@H](Cc2ccccc2F)C(=O)N[C@@H](CCC(C)(F)F)C(=O)N(C)[C@@H](Cc2ccccc2)C(=O)NCC23CC(C2)(C3)C(=O)C[C@@H](Cc2ccccc2)C(=O)N1C` [compound 290, cyclo(CPhe-NMeA~PyrimAla-cPrA-Phe2F-Nle3F2-NMeF-amBCP)] (cyclo([Ala(cPr)][Phe(2-F)][Nle(5,5-F2)][NMeF][X34][NMeA][Ala(pyrimidin-5-yl)])) came in with an EC50 of 1.07 µM.
